Experimental data from patent US6521623B1, “N,N'-disubstituted benzimidazolone derivatives with affinity at the serotonin and dopamine receptors” (Boehringer Ingelheim Pharma KG, priority 2000, dated 2003).

Columns and labels:
[1] = molecular target: T1, D4 human receptors (Homo sapiens, UniProt P21917); assay: D4 Radioligand Receptor Binding Assay ([3H] YM-09151-2, CHO cell membranes); details: compound 10^−7 M, singlicate, [3H] YM-09151-2 0.15-0.25 nM
T1 construct: expressed in transfected cells; host or cells: CHO cells
T1 sequence (P21917 1-419): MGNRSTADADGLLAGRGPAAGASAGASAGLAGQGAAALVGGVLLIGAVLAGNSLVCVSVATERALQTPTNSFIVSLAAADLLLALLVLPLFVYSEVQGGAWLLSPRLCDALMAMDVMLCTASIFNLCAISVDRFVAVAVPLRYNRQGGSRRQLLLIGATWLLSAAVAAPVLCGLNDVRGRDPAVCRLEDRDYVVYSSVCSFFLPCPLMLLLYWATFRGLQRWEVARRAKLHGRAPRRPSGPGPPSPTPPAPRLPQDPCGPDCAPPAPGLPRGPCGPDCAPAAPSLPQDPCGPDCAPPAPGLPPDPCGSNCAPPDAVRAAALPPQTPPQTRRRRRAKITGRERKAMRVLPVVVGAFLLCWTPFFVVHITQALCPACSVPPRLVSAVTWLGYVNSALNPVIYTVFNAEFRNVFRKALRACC
Protocol: D4 Radioligand Receptor Binding Assay
Membranes from CHO cells expressing D4 human receptors, were suspended in incubation buffer.
Binding assays were performed in MultiProbe 204 pipetting system (Packard), according to a predetermined mapping, consistent with the software Screen. The compounds were tested in singlicate at one concentration (10^−7 M) in a total volume of 1000 μl (980 μl of diluted membranes, 10 μl DMSO or unlabelled ligand and 10 μl of [^3H] YM-09151-2 (0.15-0.25 nM). After incubation for 120 minutes at 27° C., the reaction was stopped by rapid filtration through Tomtec Cell Harvester (48 wells) using Filtermat B (presoaked in 0.1% PEI) filters. Filters were washed with ice-cold 50 mM Tris-HCl (pH 7.4) buffer (9×700 μl), dried, covered with MeltiLex B/HS (Wallac) scintillator sheets and heated in oven at 80° C. to 90° C. for about 10 minutes, transferred into plastic sample bags (Wallac), sealed, and put into 1024 Beta Plate scintillation counter (Wallac). Non-specific binding was determined in the presence of clozapine dissolved in DMSO to a final concentration of 10^−5 M.
(§1) The specific radioligand binding to the receptor was defined by the difference between total binding and non-specific binding, determined in the presence of an excess of unlabelled ligand. Results were expressed as percentage of control specific binding obtained in the presence of the compounds.

[2] = molecular target: T2, 5-HT1A (Homo sapiens, UniProt P08908); assay: 5HT1A Radioligand Receptor Binding Assay ([3H]-8-OH-DPAT, CHO cell membranes); parameters: expressed in transfected cells; host or cells: CHO cells; details: CHO membranes, human 5-HT1A; for IC50: [3H]-8-OH-DPAT, read-out: 5-HT1A Receptor Binding IC50
T2 sequence (P08908 1-422): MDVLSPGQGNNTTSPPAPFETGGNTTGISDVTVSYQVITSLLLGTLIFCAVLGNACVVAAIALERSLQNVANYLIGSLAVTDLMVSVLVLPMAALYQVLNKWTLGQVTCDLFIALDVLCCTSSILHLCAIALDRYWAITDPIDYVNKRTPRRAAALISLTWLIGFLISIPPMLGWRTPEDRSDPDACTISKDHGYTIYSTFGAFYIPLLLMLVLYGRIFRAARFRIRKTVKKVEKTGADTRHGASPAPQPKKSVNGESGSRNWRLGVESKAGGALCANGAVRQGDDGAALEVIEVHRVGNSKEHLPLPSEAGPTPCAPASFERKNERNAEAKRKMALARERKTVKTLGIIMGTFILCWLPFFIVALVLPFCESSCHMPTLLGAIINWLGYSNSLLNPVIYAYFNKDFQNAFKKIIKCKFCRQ
Protocol: 5HT1A Radioligand Receptor Binding Assay
Membranes from CHO cells, expressing 5-HT1A human receptors were suspended in incubation buffer.
Binding assays were performed in MultiProbe 204 pipetting system (Packard), according to a predetermined mapping, consistent with the software Screen. The compounds were tested in singlicate at one concentration (10^−7 M) in a total volume of 1000 μl. 980 μl of diluted membranes, 10 μl DMSO or unlabelled ligand and 10 μl of [^3H]-8-OH-DPAT (0.6-0.7 nM) were incubated for 60 minutes at 27° C. The reaction was stopped by rapid filtration through Tomtec Cell Harvester (48 wells) using Filtermat B (presoaked in 0.1% PEI) filters. Filters were washed with ice-cold 50 mM Tris-HCl (pH 7.4) buffer (9×700 μl), dried, covered with MeltiLex B/HS scintillator sheets (Wallac) and heated at 80° C. to 90° C. for about 10 minutes, transferred into plastic sample bags (Wallac), sealed, and put into 1024 Beta Plate scintillation counter (Wallac). Non-specific binding was determined in the presence of 5-HT (10^−5 M).
as §1, with “compounds. The affinity values (IC50) for the compounds were obtained by a nonlinear least squares regression analysis on the basis of a one binding site model.” for “compounds.”

[3] = compound 10^−7 M, singlicate, [3H]-8-OH-DPAT 0.6-0.7 nM

Structure (SMILES) | D4 Receptor Binding Assay % inhibition (10^−7 M) [1] [%] | 5-HT1A Receptor Binding Assay % inhibition (10^−7 M) [2, 3] [%] | inhibition at 0.1 µM [1] [%] | IC50 [2] [nM] | inhibition at 0.1 µM [2, 3] [%]
COc1ccccc1N1CCN(C/C=C/Cn2c(=O)n(CCNS(C)(=O)=O)c3ccccc32)CC1 [Compound 535] | 39 | 97 |  |  | 
O=c1n(CCCCN2CCN(c3ccccn3)CC2)c2ccccc2n1CCN1CCCCC1 [Compound 23] | 48 | 73 |  |  | 
O=c1n(CCCCN2CCN(c3ncccn3)CC2)c2ccccc2n1CCN1CCCCC1 [Compound 25] | 44 | 48 |  |  | 
COCCn1c(=O)n(CCCCN2CCc3c([nH]c4ccccc34)C2)c2ccccc21 [Compound 7] | 91 | 77 |  |  | 
COc1ccccc1N1CCN(CCn2c(=O)n(CCN3CCCCC3)c3ccccc32)CC1 [Compound 159] | 50 | 85 |  |  | 
O=c1n(C/C=C\CN2CCN(c3cccc(Cl)c3)CC2)c2ccccc2n1CCN1CCOCC1 [Compound 263] |  |  | 42 | 8.8 | 92
O=c1n(CCCCN2CCN(c3ccccc3)CC2)c2ccccc2n1CCN1CCOCC1 [Compound 39] | 42 | 36 |  |  | 
O=c1n(CCCCN2CCN(c3ccc(Cl)c(Cl)c3)CC2)c2ccccc2n1CCN1CCCCC1 [Compound 30] | 90 | 44 |  |  | 
O=c1n(CCCCN2CC=C(c3ccccc3)CC2)c2ccccc2n1CCN1CCCCC1 [Compound 29] | 83 | 57 |  |  | 
CS(=O)(=O)NCCn1c(=O)n(C/C=C\CN2CCc3c([nH]c4ccccc34)C2)c2ccccc21 [Compound 501] | 63 | 70 |  |  | 
O=c1n(CCO)c2ccccc2n1CCN1CC=C(c2ccccc2)CC1 [Compound 188] | 78 | 78 |  |  | 
O=c1n(C/C=C\CN2CCN(c3ccccc3)CC2)c2ccccc2n1CCO [Compound 361] | 46 | 86 |  |  | 
COCCn1c(=O)n(CCCCN2CC=C(c3ccccc3)CC2)c2ccccc21 [Compound 10] | 47 | 60 |  |  | 
O=c1n(C/C=C\CN2CCN(c3ccccn3)CC2)c2ccccc2n1CCO [Compound 364] | 36 | 77 |  |  | 
O=c1n(CCN2CCCCC2)c2ccccc2n1CCN1CCN(c2cccc(Cl)c2)CC1 [Compound 145] | 42 | 85 |  |  | 
COCCn1c(=O)n(CCN2CC=C(c3ccccc3)CC2)c2ccccc21 [Compound 169] | 58 | 85 |  |  | 
CS(=O)(=O)NCCn1c(=O)n(C/C=C/CN2CCN(c3ccc(Cl)c(Cl)c3)CC2)c2ccccc21 [Compound 527] | 36 | 73 |  |  | 
O=c1n(CCCCN2CCN(c3cccc(Cl)c3)CC2)c2ccccc2n1CCN1CCCCC1 [Compound 24] | 67 | 90 |  |  | 
O=c1n(C/C=C/CN2CCN(c3ccccc3)CC2)c2ccccc2n1CCO [Compound 378] | 35 | 77 |  |  | 
O=c1n(CCO)c2ccccc2n1CCCCN1CC=C(c2ccccc2)CC1 [Compound 65] | 74 | 52 |  |  | 
O=c1n(C/C=C\CN2CCN(c3cccc(Cl)c3)CC2)c2ccccc2n1CCO [Compound 365] |  |  | 63 | 15 | 
CCNC(=O)OCCn1c(=O)n(CCCCN2CC=C(c3ccccc3)CC2)c2ccccc21 [Compound 84] | 42 | 52 |  |  | 

Other lines, results leading:

D4 Receptor Binding Assay % inhibition (10^−7 M) [1] [%] | 5-HT1A Receptor Binding Assay % inhibition (10^−7 M) [2, 3] [%] | inhibition at 0.1 µM [1] [%] | IC50 [2] [nM] | inhibition at 0.1 µM [2, 3] [%] | Structure (SMILES)
32 | 86 |  |  |  | CCNC(=O)OCCn1c(=O)n(C/C=C\CN2CCN(c3ccccc3)CC2)c2ccccc21 [Compound 395]
54 | 67 |  |  |  | CCNC(=O)OCCn1c(=O)n(CCCCN2CCN(c3ccccc3)CC2)c2ccccc21 [Compound 75]
62 | 92 |  |  |  | COc1ccccc1N1CCN(CCCCn2c(=O)n(CCO)c3ccccc32)CC1 [Compound 74]
64 | 85 |  |  |  | CCNC(=O)OCCn1c(=O)n(CCCCN2CCN(c3ccccc3C)CC2)c2ccccc21 [Compound 95]
51 | 75 |  |  |  | O=c1n(CCO)c2ccccc2n1CCCCN1CCN(c2ccccn2)CC1 [Compound 59]
71 | 63 |  |  |  | O=c1n(CCO)c2ccccc2n1CCCCN1CCN(c2ccccc2)CC1 [Compound 56]
78 | 92 |  |  |  | COc1ccccc1N1CCN(CCCCn2c(=O)n(CCN3CCCCC3)c3ccccc32)CC1 [Compound 38]
44 | 92 |  |  |  | CCNC(=O)OCCn1c(=O)n(CCN2CCN(c3ccccc3OC)CC2)c2ccccc21 [Compound 216]
90 | 48 |  |  |  | COCCn1c(=O)n(CCCCN2CCN(c3ccc(Cl)c(Cl)c3)CC2)c2ccccc21 [Compound 11]
55 | 94 |  |  |  | CCNC(=O)OCCn1c(=O)n(CCCCN2CCN(c3cccc(C)c3C)CC2)c2ccccc21 [Compound 92]
58 | 55 |  |  |  | CC(=O)NCCn1c(=O)n(CCCCN2CCN(c3ccc(Cl)c(Cl)c3)CC2)c2ccccc21 [Compound 107]
43 | 77 |  |  |  | COc1ccccc1N1CCN(CCn2c(=O)n(CCO)c3ccccc32)CC1 [Compound 197]
36 | 80 |  |  |  | CC(=O)NCCn1c(=O)n(CCCCN2CCN(c3ccccc3Cl)CC2)c2ccccc21 [Compound 118]
